What all share (details): incubation time: 72 h
Experiment [1] relates to CAL-148. Briefly: normalised viability (% of control), CellTiter-Blue; higher = more viable cells (about 100 = DMSO control). As to the method:
(§1)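 DSRT, CellTiter-Blue viability, 72 h incubation. Signal is normalised to DMSO and benzethonium chloride controls. Value is the normalised response at dose 6.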
In general terms: The colour change of resazurin is a common sign of viable cells or microbes.

The test system of experiment [2] is CAL-51. The description is as above. As to the method:
as §1

For experiment [3], the system named is CAL-85-1. The experiment is described as above. As to the method:
as §1

The test system of experiment [4] is DU-4475. The description is as above. As to the method:
as §1

In experiment [5] the test system is HDQ-P1. The description is as above. As to the method:
as §1

The subject of experiment [6] is MDA-MB-453. The description is as above. As to the method:
as §1

For experiment [7], the system named is CAL-148. The description is as above. As to the method: (§2)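 DSRT, CellTiter-Blue viability, 72 h incubation. Signal is normalised to DMSO and benzethonium chloride controls. Value is the normalised response at dose 8.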
This is another data set of the same source.

The subject of experiment [8] is CAL-51. The description is as above. As to the method: as §2
This is another data set of the same source.

Experiment [9] has as its system CAL-85-1. The description is as above. As to the method:
as §2
The source holds these as a separate data set.

The test system of experiment [10] is HDQ-P1. Described as above. As to the method:
as §2
The source holds these as a separate data set.

Experiment [11] concerns MDA-MB-453. The description is as above. As to the method: as §2
The source holds these as a separate data set.

The subject of experiment [12] is BT-474. Briefly: normalised response (% of control), CellTox Green; higher = less cell death (100 = DMSO, 0 = benzethonium chloride kill control). A digest of the protocol:
(§3)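 Values are normalised signals, each belonging to one concentration of the series. Breast cancer cells (20 µl suspension) were seeded into 384-well plates with compound at 5 concentrations in 10-fold steps over a compound-specific 10,000-fold range and incubated 72 h. Readouts were CellTox Green fluorescence (485/520 nm), then CellTiter-Glo luminescence after 10 min at room temperature, with each plate set to 0.1 % DMSO as 100 and a positive kill control as 0.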

Experiment [13] concerns BT-549. The description is as above. A digest of the protocol:
as §3

The test system of experiment [14] is CAL-120. Described as above. The method, boiled down: as §3
In experiment [15] the test system is CAL-148. Described as above. A digest of the protocol: as §3
For experiment [16], the system named is CAL-51. The experiment is described as above. The method, boiled down: as §3
Experiment [17] relates to CAL-85-1. Described as above. The method, boiled down:
as §3

Experiment [18] relates to DU-4475. Described as above. A digest of the protocol: as §3
Experiment [19] has as its system HCC1143. The description is as above. The method, boiled down: as §3
Experiment [20] concerns HCC1599. Described as above. The method, boiled down:
as §3

Experiment [21] has as its system HCC1937. Described as above. A digest of the protocol: as §3
The subject of experiment [22] is HDQ-P1. The description is as above. The method, boiled down: as §3
Experiment [23] deals with Hs578T. The description is as above. A digest of the protocol:
as §3

Experiment [24] has as its system MCF-10A. Described as above. A digest of the protocol:
as §3

In experiment [25] the test system is MDA-MB-231. Described as above. The method, boiled down: as §3
For experiment [26], the system named is MDA-MB-436. The experiment is described as above. A digest of the protocol: as §3
Experiment [27] deals with MDA-MB-453. The description is as above. The method, boiled down: as §3
Experiment [28] deals with MDA-MB-468. The experiment is described as above. The method, boiled down:
as §3

The subject of experiment [29] is MFM-223. The experiment is described as above. The method, boiled down: as §3
In experiment [30] the test system is BT-474. Briefly: normalised response (% of control), CellTiter-Glo; higher = more viable cells (100 = DMSO, 0 = benzethonium chloride kill control). As to the method:
(§4)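 DSRT, 72 h incubation, CellTox Green / CellTiter-Glo readout. Signal is normalised to DMSO and benzethonium chloride controls. Value is the normalised response at the highest dose.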

The test system of experiment [31] is BT-549. Described as above. As to the method:
as §4

Experiment [32] relates to CAL-120. The experiment is described as above. As to the method:
as §4

Experiment [33] has as its system CAL-148. The description is as above. As to the method: as §4
Experiment [34] deals with CAL-51. The description is as above. As to the method: as §4
Experiment [35] relates to CAL-85-1. The description is as above. As to the method:
as §4

The test system of experiment [36] is DU-4475. The description is as above. As to the method: as §4
The subject of experiment [37] is HCC1143. The experiment is described as above. As to the method:
as §4

The subject of experiment [38] is HCC1599. Described as above. As to the method:
as §4

For experiment [39], the system named is HCC1937. The description is as above. As to the method: as §4
Experiment [40] relates to HDQ-P1. Described as above. As to the method: as §4
The subject of experiment [41] is Hs578T. Described as above. As to the method:
as §4

In experiment [42] the test system is MCF-10A. The experiment is described as above. As to the method: as §4
In experiment [43] the test system is MDA-MB-231. The experiment is described as above. As to the method:
as §4

In experiment [44] the test system is MDA-MB-436. Described as above. As to the method:
as §4

Experiment [45] relates to MDA-MB-453. The description is as above. As to the method: as §4
The subject of experiment [46] is MDA-MB-468. Described as above. As to the method: as §4
The test system of experiment [47] is MFM-223. Described as above. As to the method:
as §4

The test system of experiment [48] is SK-BR-3. Described as above. As to the method: as §4

The source of these data is the supplement of paper PMC4862054.

Several values for one entry are separate records, joined by “and”; a condition that tells them apart may be missing. Identical values can stand only once.

`Cc1c(N)nc([C@H](CC(N)=O)NC[C@H](N)C(N)=O)nc1C(=O)N[C@H](C(=O)N[C@H](C)[C@@H](O)[C@H](C)C(=O)N[C@H](C(=O)NCCc1nc(-c2nc(C(=O)NCCC[S+](C)C)cs2)cs1)[C@@H](C)O)[C@@H](OC1OC(CO)C(O)C(O)C1OC1OC(CO)C(O)C(OC(N)=O)C1O)c1cnc[nH]1` (stereo not given in full) [Bleomycin] (300 nM): the normalised viability in experiment [1] worked out at 81.5%; in [2], 90.9%; in experiment [3] it was 92.5%; in [4], 107%; in experiment [5], 72.9%; in experiment [6], 102%.
Regarding `CCCCCOC(=O)Nc1nc(=O)n([C@@H]2O[C@H](C)[C@@H](O)[C@H]2O)cc1F` [Capecitabine] (300 nM), the normalised viability in [1] is 98% and 94.3%; in [2], 103% and 96.5%; in experiment [3], 92.1% and 98.6%; in experiment [5], 62.7% and 83.6%; in [6] it was 108% and 94.3%.
Consider `CCCCCOC(=O)Nc1nc(=O)n([C@@H]2O[C@H](C)[C@@H](O)[C@H]2O)cc1F` [Capecitabine] (3000 nM), for which the normalised viability in [7] is 98.8% and 92.8%; in [8], 109% and 96%; in experiment [9] it was 82.3% and 95.4%; in [10] it was 89.4% and 86.4%; in experiment [11] it was 95.7% and 93.7%.
`COc1cc2c(cc1-c1c(C)noc1C)ncc1[nH]c(=O)n([C@H](C)c3ccccn3)c12` [I-BET151] (10000 nM): the normalised response in [12] worked out at 95.2%; in [13], 81.8%; in experiment [14], 76.1%; in experiment [15], 72.4%; in experiment [16] it was 47.1%; in experiment [17], 48.9%. The normalised response was 81.2% in [18]; 104% in experiment [19]; 93.5% in experiment [20]; 66.3% in [21]; 72.8% in experiment [22]; 112% in [23]. Also, the normalised response was 28.1% in [24]; 45.2% in experiment [25]; 35.5% in experiment [26]; 98.5% in [27]; -18.1% in experiment [28]; 104% in [29]. The normalised response in experiment [30] was found to be 59.3%; in [31], 38.5%; in experiment [32], 64%; in experiment [33], 71.7%; in experiment [34] it was 59.5%; in experiment [35], 30.7%. Further, the normalised response in experiment [36] worked out at 53.3%; in experiment [37], 59.3%; in [38], 67.6%; in experiment [39], 72.2%; in [40], 67%; in experiment [41], 35%. The normalised response in [42] was found to be 54.5%; in [43], 62.5%; in [44], 75.6%; in experiment [45], 21.8%; in experiment [46], 50.6%; in experiment [47], 49.9%. Further, the normalised response in [48] came out at 53%.
Regarding `CC(C)n1nc(-c2ccc3oc(N)nc3c2)c2c(N)ncnc21` [INK128] (1000 nM), the normalised response in experiment [12] worked out at 93.8%; in experiment [13], 93.2%; in [14] it was 97.3%; in [15], 42%; in experiment [16], 85.2%; in experiment [17] it was 115%. The normalised response was 86.9% in experiment [18]; 113% in experiment [19]; 99.4% in experiment [20]; 103% in experiment [21]; 98.4% in experiment [22]; -29.1% in experiment [23]. Further, the normalised response in experiment [24] stood at 92%; in experiment [25], 87.6%; in experiment [26], 91.4%; in experiment [27], 97.1%; in [28], 153%; in [29] it was 28.3%. The normalised response was 41.1% in experiment [30]; 19.5% in experiment [31]; 18.5% in experiment [32]; 16.1% in experiment [33]; 20.9% in experiment [34]; 24.2% in [35]. Besides, the normalised response in [36] came to 18.4%; in experiment [37], 22.1%; in experiment [38], 79.2%; in [39] it was 37%; in experiment [40] it was 29.6%; in experiment [41], 24.5%. The normalised response in experiment [42] was found to be 25.1%; in [43], 33.9%; in [44], 45.8%; in experiment [45], 30%; in [46], 18.7%; in [47], 26.5%. Also, the normalised response in experiment [48] turned out to be 17.4%.
